Consider 5 molecules from ChEMBL document CHEMBL4828718, “Synthesis and Antifungal Activity Evaluation of Phloeodictine Analogues” (J Nat Prod, 2021).

A value given as a limit tells only on which side of the number the result lay.

For orientation: MIC means the lowest concentration that inhibits growth of the organism. A word on the MFC: it is the lowest tested concentration that kills the fungus rather than only halting it. The IC50 is the concentration at which inhibition is half-maximal.

One test concerns Aspergillus fumigatus. The test is described as follows: Antifungal activity against Aspergillus fumigatus ATCC 90906 assessed as fungal growth inhibition incubated for 72 hrs by alamar blue assay. The test is classed as functional. The following applies: Aspergillus fumigatus, ATCC 90906, 72 h, read-out: MIC.
As to `CCCCCCCCCCCCCCC1(O)C(C)=C(C)C2=[N+](Cc3ccc(C#N)cc3)CCCN21` (stereo not given), the MIC is 4.5 µM.
Regarding `CCCCCCCCCCCCCCC1(O)C(C)=C(C)C2=[N+](Cc3ccc([N+](=O)[O-])cc3)CCCN21` (stereo not given), the MIC is 5 µM.
For the molecule `CCCCCCCCCCCCCCC1(O)C(C)=C(C)C2=[N+](CC(=O)NCCCN)CCCN21` (stereo not given), the MIC worked out at 20 µM.
For `CCCCCCCCCCCCCCC1(O)C(C)=C(C)C2=[N+](Cc3ccc(F)cc3F)CCCN21` (stereo not given), the minimum inhibitory concentration (MIC) turned out to be 3 µM.
Still for that read-out and setting: the result for `C=CC[N+]1=C2C(C)=C(C)C(O)(CCCCCCCCCCCCCC)N2CCC1` (stereo not given) reads 5.2 µM.

The test system of another test is Candida albicans. Briefly: Antifungal activity against Candida albicans ATCC 90028 assessed as fungal growth inhibition incubated for 18 to 24 hrs by alamar blue assay. The test is classed as functional. The following applies: Candida albicans, ATCC 90028, time 18-24 hrs; read-out: MIC. Background: The colour change of resazurin is a common sign of viable cells or microbes.
On to `CCCCCCCCCCCCCCC1(O)C(C)=C(C)C2=[N+](Cc3ccc(C#N)cc3)CCCN21` (stereo not given), for which the MIC came to 4.5 µM.
Still for that read-out and setting: in the case of `CCCCCCCCCCCCCCC1(O)C(C)=C(C)C2=[N+](Cc3ccc([N+](=O)[O-])cc3)CCCN21` (stereo not given) it was 4.3 µM; in that of `CCCCCCCCCCCCCCC1(O)C(C)=C(C)C2=[N+](CC(=O)NCCCN)CCCN21` (stereo not given), 12 µM.
Consider `CCCCCCCCCCCCCCC1(O)C(C)=C(C)C2=[N+](Cc3ccc(F)cc3F)CCCN21` (stereo not given), for which the minimum inhibitory concentration (MIC) turned out to be 3.7 µM.
The same measure, in the same setting: the result for `C=CC[N+]1=C2C(C)=C(C)C(O)(CCCCCCCCCCCCCC)N2CCC1` (stereo not given) reads 3.5 µM.

For another test, the system named is Pichia kudriavzevii. Briefly: Fungicidal activity against Candida krusei ATCC 6258 assessed as fungal growth inhibition incubated for 18 to 24 hrs by alamar blue assay. The following applies: Pichia kudriavzevii, ATCC 6258, time 18-24 hrs; read-out: MFC. The test is classed as functional.
Turning to `CCCCCCCCCCCCCCC1(O)C(C)=C(C)C2=[N+](Cc3ccc(C#N)cc3)CCCN21` (stereo not given), the MFC was 2.1 µM.
Same read-out and setting: in the case of `CCCCCCCCCCCCCCC1(O)C(C)=C(C)C2=[N+](Cc3ccc([N+](=O)[O-])cc3)CCCN21` (stereo not given) it was 1.7 µM; in that of `CCCCCCCCCCCCCCC1(O)C(C)=C(C)C2=[N+](CC(=O)NCCCN)CCCN21` (stereo not given), 12 µM; in that of `CCCCCCCCCCCCCCC1(O)C(C)=C(C)C2=[N+](Cc3ccc(F)cc3F)CCCN21` (stereo not given), 1.8 µM.
On the same count and under the same terms, in the case of `C=CC[N+]1=C2C(C)=C(C)C(O)(CCCCCCCCCCCCCC)N2CCC1` (stereo not given) it was 2.5 µM.

The next test concerns Pichia kudriavzevii. The test is described as follows: Antifungal activity against Candida krusei ATCC 6258 assessed as fungal growth inhibition incubated for 18 to 24 hrs by alamar blue assay. The test is classed as functional. The settings on record: Pichia kudriavzevii, ATCC 6258, time 18-24 hrs; read-out: MIC.
With `CCCCCCCCCCCCCCC1(O)C(C)=C(C)C2=[N+](Cc3ccc(C#N)cc3)CCCN21` (stereo not given), the MIC came to 2.1 µM.
On the same count and under the same terms, the result for `CCCCCCCCCCCCCCC1(O)C(C)=C(C)C2=[N+](Cc3ccc([N+](=O)[O-])cc3)CCCN21` (stereo not given) reads 1.7 µM; that for `CCCCCCCCCCCCCCC1(O)C(C)=C(C)C2=[N+](CC(=O)NCCCN)CCCN21` (stereo not given), 7.5 µM; that for `CCCCCCCCCCCCCCC1(O)C(C)=C(C)C2=[N+](Cc3ccc(F)cc3F)CCCN21` (stereo not given), 1.8 µM.
On the same count and under the same terms, in the case of `C=CC[N+]1=C2C(C)=C(C)C(O)(CCCCCCCCCCCCCC)N2CCC1` (stereo not given) it was 2.5 µM.

The next test concerns Vero. Briefly: Cytotoxicity against African green monkey Vero cells assessed as reduction in cell viability incubated for 48 hrs by neutral red dye based assay. Also on record: species or system Chlorocebus sabaeus. The settings on record: Chlorocebus sabaeus, Vero, 48 h.
Consider `CCCCCCCCCCCCCCC1(O)C(C)=C(C)C2=[N+](Cc3ccc(C#N)cc3)CCCN21` (stereo not given), for which the IC50 stood at 29 µM.
Regarding `CCCCCCCCCCCCCCC1(O)C(C)=C(C)C2=[N+](Cc3ccc([N+](=O)[O-])cc3)CCCN21` (stereo not given), the concentration for half-maximal inhibition (IC50) came out at 36 µM.
`CCCCCCCCCCCCCCC1(O)C(C)=C(C)C2=[N+](CC(=O)NCCCN)CCCN21` (stereo not given): the half-maximal inhibitory concentration (IC50) is over 45 µM.
Same read-out and setting: the result for `CCCCCCCCCCCCCCC1(O)C(C)=C(C)C2=[N+](Cc3ccc(F)cc3F)CCCN21` (stereo not given) reads 28 µM; that for `C=CC[N+]1=C2C(C)=C(C)C(O)(CCCCCCCCCCCCCC)N2CCC1` (stereo not given), 32 µM.

The subject of the next test is Nakaseomyces glabratus. The test is described as follows: Fungicidal activity against Candida glabrata ATCC 90030 assessed as fungal growth inhibition incubated for 18 to 24 hrs by alamar blue assay. The test is classed as functional. The settings on record: Nakaseomyces glabratus, ATCC 90030, time 18-24 hrs; read-out: MFC.
Consider `CCCCCCCCCCCCCCC1(O)C(C)=C(C)C2=[N+](Cc3ccc(C#N)cc3)CCCN21` (stereo not given), for which the minimal fungicidal concentration (MFC) is 2.1 µM.
For the molecule `CCCCCCCCCCCCCCC1(O)C(C)=C(C)C2=[N+](Cc3ccc([N+](=O)[O-])cc3)CCCN21` (stereo not given), the minimum fungicidal concentration (MFC) came to 2.1 µM.
On the same count and under the same terms, in the case of `CCCCCCCCCCCCCCC1(O)C(C)=C(C)C2=[N+](CC(=O)NCCCN)CCCN21` (stereo not given) it was 15 µM.
In the case of `CCCCCCCCCCCCCCC1(O)C(C)=C(C)C2=[N+](Cc3ccc(F)cc3F)CCCN21` (stereo not given), the MFC came to 1.8 µM.
Still for that read-out and setting: in the case of `C=CC[N+]1=C2C(C)=C(C)C(O)(CCCCCCCCCCCCCC)N2CCC1` (stereo not given) it was 5.2 µM.

The test system of the next test is Cryptococcus neoformans. Briefly: Antifungal activity against Cryptococcus neoformans ATCC 90113 assessed as fungal growth inhibition incubated for 72 hrs by alamar blue assay. The test is classed as functional. The settings on record: Cryptococcus neoformans, ATCC 90113, 72 h, read-out: MIC.
As to `CCCCCCCCCCCCCCC1(O)C(C)=C(C)C2=[N+](Cc3ccc(C#N)cc3)CCCN21` (stereo not given), the minimal inhibitory concentration (MIC) stood at 1.1 µM.
As for `CCCCCCCCCCCCCCC1(O)C(C)=C(C)C2=[N+](Cc3ccc([N+](=O)[O-])cc3)CCCN21` (stereo not given), the minimum inhibitory concentration (MIC) was determined as 1.4 µM.
On the same count and under the same terms, in the case of `CCCCCCCCCCCCCCC1(O)C(C)=C(C)C2=[N+](CC(=O)NCCCN)CCCN21` (stereo not given) it was 3.8 µM; in that of `CCCCCCCCCCCCCCC1(O)C(C)=C(C)C2=[N+](Cc3ccc(F)cc3F)CCCN21` (stereo not given), 0.88 µM; in that of `C=CC[N+]1=C2C(C)=C(C)C(O)(CCCCCCCCCCCCCC)N2CCC1` (stereo not given), 1 µM.

The subject of a further test is Cryptococcus neoformans. Briefly: Fungicidal activity against Cryptococcus neoformans ATCC 90113 assessed as fungal growth inhibition incubated for 72 hrs by alamar blue assay. The test is classed as functional. The settings on record: Cryptococcus neoformans, ATCC 90113, 72 h, read-out: MFC.
For the molecule `CCCCCCCCCCCCCCC1(O)C(C)=C(C)C2=[N+](Cc3ccc(C#N)cc3)CCCN21` (stereo not given), the MFC was found to be 1.1 µM.
Regarding `CCCCCCCCCCCCCCC1(O)C(C)=C(C)C2=[N+](Cc3ccc([N+](=O)[O-])cc3)CCCN21` (stereo not given), the minimum fungicidal concentration (MFC) was 1.4 µM.
Same read-out and setting: the result for `CCCCCCCCCCCCCCC1(O)C(C)=C(C)C2=[N+](CC(=O)NCCCN)CCCN21` (stereo not given) reads 3.8 µM; that for `CCCCCCCCCCCCCCC1(O)C(C)=C(C)C2=[N+](Cc3ccc(F)cc3F)CCCN21` (stereo not given), 1.1 µM; that for `C=CC[N+]1=C2C(C)=C(C)C(O)(CCCCCCCCCCCCCC)N2CCC1` (stereo not given), 4.1 µM.

Another test concerns Candida albicans. The test is described as follows: Fungicidal activity against Candida albicans ATCC 90028 assessed as fungal growth inhibition incubated for 18 to 24 hrs by alamar blue assay. The test is classed as functional. The settings on record: Candida albicans, ATCC 90028, time 18-24 hrs; read-out: MFC.
As to `CCCCCCCCCCCCCCC1(O)C(C)=C(C)C2=[N+](Cc3ccc(C#N)cc3)CCCN21` (stereo not given), the minimum fungicidal concentration (MFC) was found to be 4.5 µM.
Consider `CCCCCCCCCCCCCCC1(O)C(C)=C(C)C2=[N+](Cc3ccc([N+](=O)[O-])cc3)CCCN21` (stereo not given), for which the MFC was 4.3 µM.
As for `CCCCCCCCCCCCCCC1(O)C(C)=C(C)C2=[N+](CC(=O)NCCCN)CCCN21` (stereo not given), the minimal fungicidal concentration (MFC) was determined as 18 µM.
For the molecule `CCCCCCCCCCCCCCC1(O)C(C)=C(C)C2=[N+](Cc3ccc(F)cc3F)CCCN21` (stereo not given), the minimal fungicidal concentration (MFC) came to 3.7 µM.
On the same count and under the same terms, in the case of `C=CC[N+]1=C2C(C)=C(C)C(O)(CCCCCCCCCCCCCC)N2CCC1` (stereo not given) it was 4.3 µM.

The next test relates to Nakaseomyces glabratus. Briefly: Antifungal activity against Candida glabrata ATCC 90030 assessed as fungal growth inhibition incubated for 18 to 24 hrs by alamar blue assay. The test is classed as functional. The following applies: Nakaseomyces glabratus, ATCC 90030, time 18-24 hrs; read-out: MIC.
As for `CCCCCCCCCCCCCCC1(O)C(C)=C(C)C2=[N+](Cc3ccc(C#N)cc3)CCCN21` (stereo not given), the MIC worked out at 2.1 µM.
Still for that read-out and setting: in the case of `CCCCCCCCCCCCCCC1(O)C(C)=C(C)C2=[N+](Cc3ccc([N+](=O)[O-])cc3)CCCN21` (stereo not given) it was 2.1 µM; in that of `CCCCCCCCCCCCCCC1(O)C(C)=C(C)C2=[N+](CC(=O)NCCCN)CCCN21` (stereo not given), 12 µM.
On the same count and under the same terms, in the case of `CCCCCCCCCCCCCCC1(O)C(C)=C(C)C2=[N+](Cc3ccc(F)cc3F)CCCN21` (stereo not given) it was 1.8 µM; in that of `C=CC[N+]1=C2C(C)=C(C)C(O)(CCCCCCCCCCCCCC)N2CCC1` (stereo not given), 3.5 µM.

The test system of the next test is Aspergillus fumigatus. Briefly: Fungicidal activity against Aspergillus fumigatus ATCC 90906 assessed as fungal growth inhibition incubated for 72 hrs by alamar blue assay. The test is classed as functional. The following applies: Aspergillus fumigatus, ATCC 90906, 72 h, read-out: MFC.
On to `CCCCCCCCCCCCCCC1(O)C(C)=C(C)C2=[N+](Cc3ccc(C#N)cc3)CCCN21` (stereo not given), for which the MFC stood at 4.5 µM.
The same measure, in the same setting: the result for `CCCCCCCCCCCCCCC1(O)C(C)=C(C)C2=[N+](Cc3ccc([N+](=O)[O-])cc3)CCCN21` (stereo not given) reads 5 µM; that for `CCCCCCCCCCCCCCC1(O)C(C)=C(C)C2=[N+](CC(=O)NCCCN)CCCN21` (stereo not given), 30 µM; that for `CCCCCCCCCCCCCCC1(O)C(C)=C(C)C2=[N+](Cc3ccc(F)cc3F)CCCN21` (stereo not given), 3.7 µM.
On the same count and under the same terms, in the case of `C=CC[N+]1=C2C(C)=C(C)C(O)(CCCCCCCCCCCCCC)N2CCC1` (stereo not given) it was 17 µM.
